Measurements: patent US20150126516A1, “PIPERIDINE COMPOUND AND ITS USE IN PEST CONTROL” (Sumitomo Chemical Company, Limited, priority 2012, published 2015)
Read-outs that look alike come from different tables or passages of the source.

What was measured:
[1] = system: summer fruit tortrix moths (Adoxophyes orana); assay: Controlling effect on summer fruit tortrix moth, treated artificial feed; format: in vivo; conditions: 168 h
Protocol: Liquid medicines for a test were prepared by diluting each formulation of the compounds 1, 3, 6, 10, 12, 16, 17, 20, 21, 23, 26 to 29, 33, 38, and 42 of the present invention, which were obtained from Formulation Example 5, with water so that the concentration of the active ingredients becomes 500 ppm.
Silk Mates 2S (artificial feed: Nosan Corporation), which were sliced in a thickness of 2 mm, were placed on the bottom of polyethylene cups and 1 mL of each of the above-described liquid medicines for a test was irrigated thereto.
After air-drying, 30 first-instar larvae of summer fruit tortrix moths (Adoxophyes orana) were released in each cup, which was then covered with a lid. The cups were stored at 25° C., the number of surviving insects was counted after 7 days, and the mortality rate was obtained using the following formula.
(§1) Mortality(%)=(the number of dead insects/the number of insects provided for a test)×100

[2] = system: diamondback moths; assay: Controlling effect on diamondback moth, spray on cabbages; format: in vivo; conditions: Plutella xylostella, 120 h, read-out: Mortality rate
Protocol: Spray solutions for a test were prepared by diluting each formulation of the compounds 1, 11 to 14, 16, 17, 36, and 38 of the present invention, which were obtained from Formulation Example 5, with water so that the concentration of the active ingredients becomes 500 ppm.
Meanwhile, each of the above-described liquid solutions for the test was sprayed on cabbages in a third-leaf stage which were planted in polyethylene cups at a ratio of 20 mL/cup. After the liquid solutions were dried, the stems and leaves were cut and accommodated in each 50 mL cup. 5 second-instar larvae of diamondback moths were released in each cup, which was then covered with a lid. The cups were stored at 25° C., the number of surviving insects was counted after 5 days, and the mortality rate was obtained using the following formula.
as §1

[3] = system: cotton aphids; assay: Controlling effect on cotton aphid, spray on inoculated cucumber seedlings; format: in vivo, Aphis gossypii; conditions: 144 h; 500 ppm active ingredient, 20 ml sprayed on cucumber seedlings with about 30 cotton aphids, 6 days after spraying
[4] = system: common houseflies; assay: Controlling effect on common housefly, treated filter paper with sucrose bait; format: in vivo; conditions: Musca domestica, 24 h, read-out: Mortality rate
Protocol: Liquid medicines for a test were prepared by diluting a formulation of the compound 28 of the present invention, which was obtained from Formulation Example 5, with water so that the concentration of the active ingredients becomes 500 ppm.
A filter paper having a diameter of 5.5 cm was spread on the bottom of a polyethylene cup having the same size as that of the filter paper, 0.7 ml ml of any one of the above-described liquid medicines for a test was added dropwise onto the filter paper, and 30 mg of sucrose was uniformly put therein as bait. 10 female imagoes of common houseflies were released in the polyethylene cup, which was then covered with a lid. The number of live and dead common houseflies were checked after 24 hours and the mortality rate was obtained using the following formula.
Mortality(%)=(the number of dead insectse/the number of insects provided for a test)×100

[5] = 500 ppm, 1 mL on artificial feed, 30 first-instar larvae, 25° C., after 7 days, read-out: Mortality
[6] = 500 ppm, 20 mL/cup sprayed on cabbages, 5 second-instar larvae, 25° C., after 5 days

Row | SMILES | mortality at 500 ppm [1] | pest or weed control at 500 ppm [3] | further results
1 | O=C(NCC1(c2ccccc2)CCN(CCc2ccccc2C(F)(F)F)CC1)c1cc(Cl)nc(Cl)c1 [compound 1, 2,6-dichloro-N-((4-phenyl-1-(2-(trifluoromethyl)phenethyl)piperidin-4-yl)methyl)isonicotinamide] | ≥ 90% |  | mortality at 500 ppm [2]: ≥ 80%
2 | O=C(NCC1(c2ccccc2)CCN(CCc2ccccc2)CC1)c1ccnc(Cl)c1 [compound 2, 2-chloro-N-((1-phenethyl-4-phenylpiperidin-4-yl)methyl)isonicotinamide] |  | ≥ 90% | 
3 | O=C(NCC1(c2ccccc2)CCN(CCc2ccccc2C(F)(F)F)CC1)c1ccnc(Cl)c1 [compound 3, 2-chloro-N-((4-phenyl-1-(2-(trifluoromethyl)phenethyl)piperidin-4-yl)methyl)isonicotinamide] | ≥ 90% | ≥ 90% | 
4 | O=C(NCC1(c2ccccc2)CCN(CCc2ccccc2)CC1)c1ccc(Cl)cc1 [compound 6, 4-chloro-N-((1-phenethyl-4-phenylpiperidin-4-yl)methyl)benzamide] |  |  | mortality at 500 ppm [1, 5]: ≥ 90%
5 | O=C(NCC1(c2ccccc2)CCN(CCc2ccc(C(F)(F)F)cc2)CC1)c1ccnc(Cl)c1 [compound 10, 2-chloro-N-((4-phenyl-1-(4-(trifluoromethyl)phenethyl)piperidin-4-yl)methyl)isonicotinamide] |  |  | mortality at 500 ppm [1, 5]: ≥ 90%
6 | O=C(NCC1(c2ccccc2)CCN(CCc2ccccc2C(F)(F)F)CC1)c1ccccc1 [compound 11, N-((4-phenyl-1-(2-(trifluoromethyl)phenethyl)piperidin-4-yl)methyl)benzamide] |  | ≥ 90% | mortality at 500 ppm [2]: ≥ 80%
7 | O=C(NCC1(c2ccccc2)CCN(CCc2ccccc2C(F)(F)F)CC1)c1ccccc1Cl [compound 12, 2-chloro-N-((4-phenyl-1-(2-(trifluoromethyl)phenethyl)piperidin-4-yl)methyl)benzamide] | ≥ 90% | ≥ 90% | mortality at 500 ppm [2]: ≥ 80%
8 | O=C(NCC1(c2ccccc2)CCN(CCc2ccccc2C(F)(F)F)CC1)c1cccc(Cl)c1 [compound 13, 3-chloro-N-((4-phenyl-1-(2-(trifluoromethyl)phenethyl)piperidin-4-yl)methyl)benzamide] |  |  | mortality at 500 ppm [2, 6]: ≥ 80%
9 | O=C(NCC1(c2ccccc2)CCN(CCc2ccccc2C(F)(F)F)CC1)c1ccc(Cl)cc1 [compound 14, 4-chloro-N-((4-phenyl-1-(2-(trifluoromethyl)phenethyl)piperidin-4-yl)methyl)benzamide] |  |  | mortality at 500 ppm [2, 6]: ≥ 80%
10 | O=C(NCC1(c2ccccc2)CCN(CCc2ccccc2C(F)(F)F)CC1)c1ccccn1 [compound 16, N-((4-phenyl-1-(2-(trifluoromethyl)phenethyl)piperidin-4-yl)methyl)picolinamide] | ≥ 90% | ≥ 90% | mortality at 500 ppm [2]: ≥ 80%
11 | O=C(NCC1(c2ccccc2)CCN(CCc2ccccc2C(F)(F)F)CC1)c1cc(Cl)cc(Cl)c1 [compound 17, 3,5-dichloro-N-((4-phenyl-1-(2-(trifluoromethyl)phenethyl)piperidin-4-yl)methyl)benzamide] |  |  | mortality at 500 ppm [1, 5]: ≥ 90%; mortality at 500 ppm [2, 6]: ≥ 80%
12 | O=C(NCC1(c2ccccc2)CCN(CCc2ccccc2)CC1)c1cc(Cl)nc(Cl)c1 [compound 20, 2,6-dichloro-N-((1-phenethyl-4-phenylpiperidin-4-yl)methyl)isonicotinamide] | ≥ 90% | ≥ 90% | 
13 | O=C(NCC1(c2ccccc2)CCN(CCc2ccccc2C(F)(F)F)CC1)c1ncccc1Cl [compound 21, 3-chloro-N-((4-phenyl-1-(2-(trifluoromethyl)phenethyl)piperidin-4-yl)methyl)picolinamide] | ≥ 90% | ≥ 90% | 
14 | O=C(NCC1(c2cccc(Cl)c2)CCN(CCc2ccccc2C(F)(F)F)CC1)c1ccccc1Cl [compound 23, 2-chloro-N-((4-(3-chlorophenyl)-1-(2-(trifluoromethyl)phenethyl)piperidin-4-yl)methyl)benzamide] |  |  | mortality at 500 ppm [1, 5]: ≥ 90%
15 | O=C(NCC1(c2ccccc2)CCN(CCc2ccccc2C(F)(F)F)CC1)c1cccnc1Cl [compound 24, 2-chloro-N-((4-phenyl-1-(2-(trifluoromethyl)phenethyl)piperidin-4-yl)methyl)nicotinamide] |  | ≥ 90% | 
16 | O=C(NCC1(c2ccccc2Cl)CCN(CCc2ccccc2C(F)(F)F)CC1)c1ccccc1Cl [compound 25, 2-chloro-N-((4-(2-chlorophenyl)-1-(2-(trifluoromethyl)phenethyl)piperidin-4-yl)methyl)benzamide] |  | ≥ 90% | 
17 | COc1ccccc1CCN1CCC(CNC(=O)c2cc(Cl)nc(Cl)c2)(c2ccccc2)CC1 [compound 26, 2,6-dichloro-N-((1-(2-methoxyphenethyl)-4-phenylpiperidin-4-yl)methyl)isonicotinamide] | ≥ 90% | ≥ 90% | 
18 | Cc1ccccc1CCN1CCC(CNC(=O)c2cc(Cl)nc(Cl)c2)(c2ccccc2)CC1 [compound 27, 2,6-dichloro-N-((1-(2-methylphenethyl)-4-phenylpiperidin-4-yl)methyl)isonicotinamide] | ≥ 90% | ≥ 90% | 
19 | COc1ccccc1C(=O)NCC1(c2ccccc2)CCN(CCc2ccccc2C(F)(F)F)CC1 [compound 28, 2-methoxy-N-((4-phenyl-1-(2-(trifluoromethyl)phenethyl)piperidin-4-yl)methyl)benzamide] | ≥ 90% | ≥ 90% | mortality at 500 ppm [4]: ≥ 70%
20 | O=C(NCC1(c2ccccc2)CCN(CCc2ccccc2Cl)CC1)c1cc(Cl)nc(Cl)c1 [compound 29, 2,6-dichloro-N-((1-(2-chlorophenethyl)-4-phenylpiperidin-4-yl)methyl)isonicotinamide] | ≥ 90% | ≥ 90% | 
21 | O=C(NCC1(c2ccccc2)CCN(CCc2cccc(Cl)c2Cl)CC1)c1cc(Cl)nc(Cl)c1 [compound 33, 2,6-dichloro-N-((1-(2,3-dichlorophenethyl)-4-phenylpiperidin-4-yl)methyl)isonicotinamide] |  |  | mortality at 500 ppm [1, 5]: ≥ 90%
22 | O=C(NCC1(c2ccccc2)CCN(CCc2ccccc2C(F)(F)F)CC1)c1c(F)cc(F)cc1F [compound 36, 2,4,6-trifluoro-N-((4-phenyl-1-(2-(trifluoromethyl)phenethyl)piperidin-4-yl)methyl)benzamide] |  | ≥ 90% | mortality at 500 ppm [2]: ≥ 80%
23 | O=C(NCC1(c2ccccn2)CCN(CCc2ccccc2C(F)(F)F)CC1)c1cc(Cl)nc(Cl)c1 [compound 38, 2,6-dichloro-N-((4-(pyridin-2-yl)-1-(2-(trifluoromethyl)phenethyl)piperidin-4-yl)methyl)isonicotinamide] | ≥ 90% | ≥ 90% | mortality at 500 ppm [2]: ≥ 80%
24 | O=C(NCC1(c2cccnc2)CCN(CCc2ccccc2C(F)(F)F)CC1)c1cc(Cl)nc(Cl)c1 [compound 39, 2,6-dichloro-N-((4-(pyridin-3-yl)-1-(2-(trifluoromethyl)phenethyl)piperidin-4-yl)methyl)isonicotinamide] |  | ≥ 90% | 
25 | O=C(NCC1(c2ncccc2F)CCN(CCc2ccccc2C(F)(F)F)CC1)c1ccnc(Cl)c1 [compound 40, 2-chloro-N-((4-(3-fluoropyridin-2-yl)-1-(2-(trifluoromethyl)phenethyl)piperidin-4-yl)methyl)isonicotinamide] |  | ≥ 90% | 
26 | O=C(NCC1(c2ccccn2)CCN(CCc2ccccc2C(F)(F)F)CC1)c1ccccc1Cl [compound 41, 2-chloro-N-((4-(pyridin-2-yl)-1-(2-(trifluoromethyl)phenethyl)piperidin-4-yl)methyl)benzamide] |  | ≥ 90% | 
27 | COc1ccccc1C(=O)NCC1(c2ccccn2)CCN(CCc2ccccc2C(F)(F)F)CC1 [compound 42, 2-methoxy-N-((4-(pyridin-2-yl)-1-(2-(trifluoromethyl)phenethyl)piperidin-4-yl)methyl)benzamide] | ≥ 90% | ≥ 90% | 
